Laboratory results taken from US12441730B2, “PRMT5 inhibitors” (Merck Sharp & Dohme LLC, priority 2019, dated 2025).

Assays:
[1] = molecular target: T1, Full-length (FL)-PRMT5-MEP50 enzyme complex (Homo sapiens, UniProt O14744); assay: PRMT5-MEP50 Enzyme Methylation Assay (Version B); format: biochemical
T1 construct: Full-length (FL)-PRMT5-MEP50 enzyme complex (recombinant proteins from baculovirus-transfected Sf21 cells: FL-PRMT5; MW=73837 kDa and FL-MEP50; MW=38614); made in house; host or cells: baculovirus-transfected Sf21 cells
Description: PRMT5-MEP50 Enzyme Methylation Assay (Version B)
PRMT5/MEP50 biochemical assay is a direct measurement of the methylation activity of the enzyme complex on a short peptide substrate derived from the N-terminus of H4 histone. Methylation experiment was performed with recombinant protein. The assessment of inhibitory effect (IC50) of small molecules was measured by the effectiveness of the compounds to inhibit this reaction.
In this assay, the potency (IC50) of each compound was determined from a twenty-point (1:2 serial dilution; top compound concentration of 100000 nM) titration curve using the following outlined procedure. To each well of a white ProxiPlus 384 well-plate, 100 nL of compound (1% DMSO in final assay volume of 10 μL) was dispensed, followed by the addition of 8 μL of 1× assay buffer (50 mM Bicine pH 8.0, 1 mM DTT, 0.004% Tween20, 0.01% BSA) containing 0.5 nM of Full-length (FL)-PRMT5-MEP50 enzyme complex (recombinant proteins from baculovirus-transfected Sf21 cells: FL-PRMT5; MW=[…] and FL-MEP50; MW=38614). Plates were sealed and placed in a 37° C. humidified chamber for 30 minutes pre-incubation with compounds. Subsequently, each reaction was initiated by the addition of 2 μL 1× assay buffer containing 75 nM biotinylated H4R3 (Me1) peptide, and 15 μM S-(5′-Adenosyl)-L-Methionine Chloride (SAM). The final reaction in each well of 10 μL consists of 0.5 nM PRMT5-MEP50, 75 nM biotinylated-peptide, and 15 μM SAM. Methylation reactions were allowed to proceed for 150 minutes in a sealed plate at 37° C. Reactions were immediately quenched by the addition of 1 μL of 10% formic acid. Plates were then frozen and shipped to SAMDI™ Tech Inc. to determine the percent conversion from […]. EC50 values were determined by non-linear regression according to models for either sigmoidal (4 parameters) or biphasic (7 parameters) dose-response curves.

[2] = test system: symmetric dimethylation of arginine (SDMA) of PRMT5 substrates in MCF-7 cells; assay: PRMT5 Cell Target Engagement (TE) Assay; format: cell-based; conditions: 3 days treatment, SDMA high content imaging
Summary of the method: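 Readout is single-cell nuclear symmetric-dimethylarginine immunofluorescence (Alexa488), normalized to DMSO-treated cells. Compounds were applied to MCF-7 cells for 3 days at 37 °C, top concentration 10000 nM in 1:3 steps over ten points; curves fitted with 4-parameter robust fit.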

[3] = molecular target: T1, Full-length (FL)-PRMT5-MEP50 enzyme complex; assay: PRMT5-MEP50 Enzyme Methylation Assay (Version A); format: biochemical
Summary of the method: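 Compound was pre-incubated with enzyme for 60 min, then reacted 150 min at 37° C. at final 1.0 nM PRMT5-MEP50, 15 μM SAM and 75 nM biotinylated H4R3(Me1) peptide, in 50 mM Bicine pH 8.0 with 1% DMSO. SAMDI mass-spectrometric readout of Me1→Me2 conversion. EC50 from 4- or 7-parameter regression.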

[4] = second value of 7 parameter biphasic fit, read-out: Enzyme Methylation Assay Version B (EC50 2)
[5] = single EC50 = 4 parameter single site sigmoidal fit, EC50 1 = first value of 7 parameter biphasic fit, read-out: Enzyme Methylation Assay Version B (EC50 or EC50 1)
[6] = second value of 7 parameter biphasic fit, read-out: Enzyme Methylation Assay Version A (EC50 2)
[7] = single EC50 = 4 parameter single site sigmoidal fit, EC50 1 = first value of 7 parameter biphasic fit, read-out: Enzyme Methylation Assay Version A (EC50 or EC50 1)

T1 sequence (O14744 whole entry): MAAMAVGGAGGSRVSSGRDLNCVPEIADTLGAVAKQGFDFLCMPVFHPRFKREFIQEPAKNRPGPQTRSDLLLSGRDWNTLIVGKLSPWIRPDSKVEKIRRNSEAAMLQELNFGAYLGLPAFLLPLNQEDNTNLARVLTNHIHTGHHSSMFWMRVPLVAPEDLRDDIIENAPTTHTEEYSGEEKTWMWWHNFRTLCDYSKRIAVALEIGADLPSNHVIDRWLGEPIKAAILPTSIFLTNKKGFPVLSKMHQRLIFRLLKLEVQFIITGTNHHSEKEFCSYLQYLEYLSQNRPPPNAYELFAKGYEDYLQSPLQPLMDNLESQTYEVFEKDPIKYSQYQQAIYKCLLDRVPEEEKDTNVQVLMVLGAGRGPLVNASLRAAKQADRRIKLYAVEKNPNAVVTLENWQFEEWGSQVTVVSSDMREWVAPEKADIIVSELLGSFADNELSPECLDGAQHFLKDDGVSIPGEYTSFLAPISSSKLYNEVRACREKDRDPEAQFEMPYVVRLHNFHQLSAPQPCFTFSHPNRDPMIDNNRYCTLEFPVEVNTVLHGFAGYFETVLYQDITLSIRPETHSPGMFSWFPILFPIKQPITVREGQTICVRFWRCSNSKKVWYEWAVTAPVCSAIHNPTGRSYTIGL
T1 sequence (Q9BQA1 whole entry partner): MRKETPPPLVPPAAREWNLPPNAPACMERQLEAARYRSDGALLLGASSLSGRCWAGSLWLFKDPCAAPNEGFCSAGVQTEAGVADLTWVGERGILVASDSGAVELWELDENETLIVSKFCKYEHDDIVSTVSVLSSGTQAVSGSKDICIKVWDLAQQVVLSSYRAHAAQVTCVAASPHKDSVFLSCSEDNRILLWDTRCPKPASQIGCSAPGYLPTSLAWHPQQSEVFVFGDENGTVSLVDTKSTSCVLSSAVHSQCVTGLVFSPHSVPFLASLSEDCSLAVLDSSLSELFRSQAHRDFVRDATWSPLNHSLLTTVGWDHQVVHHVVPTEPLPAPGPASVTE

| Structure (SMILES) | EC50 [1, 4] [nM] | EC50 [1, 5] [nM] | EC50 ([2]; Homo sapiens, MCF7, 72 h) [nM] | EC50 [2] [nM] | EC50 [3, 6] [nM] | EC50 [3, 7] [nM] |
| --- | --- | --- | --- | --- | --- | --- |
| CCOc1nc(C(F)(F)F)ccc1C(=O)N1CCC2(CC1)Cc1ccccc1CN2 [Example 115, (1,4-dihydro-1′H,2H-spiro[isoquinoline-3,4′-piperidin]-1′-yl)[2-ethoxy-6-(trifluoromethyl)pyridin-3-yl]methanone] | 55000 | 86.3 | ≥ 10000 | – | – | – |
| CC(=O)N1CCC(Nc2cc(C(=O)N3CCC4(CC3)Cc3ccccc3CN4)ccn2)CC1 [Example 174, 1-(4-((4-(1,4-dihydro-2H-spiro[isoquinoline-3,4′-piperidine]-1′-carbonyl)pyridin-2-yl)amino)piperidin-1-yl)ethan-1-one] | 8840 | 13.3 | 797 | – | – | – |
| CCOc1cc(C(=O)N2C3CCC2COC3)ccc1C(=O)N1CCC2(CC1)Cc1ccccc1CN2 [Example 172, (4-(3-oxa-8-azabicyclo[3.2.1]octane-8-carbonyl)-2-ethoxyphenyl)(1,4-dihydro-2H-spiro[isoquinoline-3,4′-piperidin]-1′-yl)methanone] | 1940 | 5.42 | 88.9 | – | – | – |
| CC(=O)N1CCC(Nc2cc(C(=O)N3CC[C@]4(Cc5ccccc5CN4)[C@H](O)C3)c(F)cn2)CC1 [Example 5, 1-(4-((5-fluoro-4-((3R,3’R)-3′-hydroxy-1,4-dihydro-2H-spiro[isoquinoline-3,4′-piperidine]-1′-carbonyl)pyridin-2-yl)amino)piperidin-1-yl)ethan-1-one] | 1110 | 5.18 | 38.6 | – | – | – |
| O=C(c1ccc(C(=O)N2C3CCC2COC3)cc1OC1CC1)N1CCC2(CC1)Cc1ccccc1CN2 [Example 176, (4-(3-oxa-8-azabicyclo[3.2.1]octane-8-carbonyl)-2-cyclopropoxyphenyl)(1,4-dihydro-2H-spiro[isoquinoline-3,4′-piperidin]-1′-yl)methanone] | 2860 | 11 | 253 | – | – | – |
| CC(=O)N1CCC(Nc2cc(C(=O)N3CC[C@]4(Cc5ccccc5CN4)[C@H](O)C3)ccn2)C(F)(F)C1 (single isomer, unassigned) [Example 96, 1—((S or R)-3,3-difluoro-4-((4-((3R,3′R)-3′-hydroxy-1,4-dihydro-2H-spiro[isoquinoline-3,4′-piperidine]-1′-carbonyl)pyridin-2-yl)amino)piperidin-1-yl)ethan-1-one] | 34300 | 19.7 | – | 767 | – | – |
| CC(=O)N1CCC(Nc2cc(C(=O)N3CCC4(CC3)Cc3ccc(Cl)cc3CN4)ncn2)CC1 [Example 53, 1-(4-{[6-(7-chloro-1,4-dihydro-1′H,2H-spiro[isoquinoline-3,4′-piperidine]-1′-carbonyl)pyrimidin-4-yl]amino}piperidin-1-yl)ethan-1-one] | 5550 | 6.21 | 488 | – | – | – |
| O=C(c1ccc(C(=O)N2C3CCC2COC3)cc1)N1CCC2(Cc3ccccc3CN2)C(O)C1 (single isomer, unassigned) [Example 152, (3′-hydroxy-1,4-dihydro-1′H,2H-spiro[isoquinoline-3,4′-piperidin]-1′-yl)[4-(3-oxa-8-azabicyclo[3.2.1]oct-8-ylcarbonyl)phenyl]methanone] | 335 | 1.2 | – | 27.7 | – | – |
| O=C(c1cn2cc(Cl)cc(Cl)c2n1)N1CC[C@]2(Cc3ccccc3CN2)[C@H](O)C1 [Example 214, (6,8-dichloroimidazo[1,2-a]pyridin-2-yl)[(3R,3′R)-3′-hydroxy-1,4-dihydro-1′H,2H-spiro[isoquinoline-3,4′-piperidin]-1′-yl]methanone] | – | – | 9 | – | 47.9 | 1.12 |
| O=C(c1cn2cc(Br)ccc2n1)N1CC[C@]2(Cc3ccccc3CN2)[C@H](O)C1 [Example 1, (6-bromoimidazo[1,2-a]pyridin-2-yl)((3R,3′R)-3′-hydroxy-1,4-dihydro-2H-spiro[isoquinoline-3,4′-piperidin]-1′-yl)methanone] | – | – | 2.92 | – | 75.3 | 0.501 |
| O=C(c1cn2cc(Br)nc(OCC3CCCO3)c2n1)N1CC[C@]2(Cc3ccccc3CN2)[C@H](O)C1 (single isomer, unassigned) [Example 101, (6-bromo-8-(((S or R)-tetrahydrofuran-2-yl)methoxy)imidazo[1,2-a]pyrazin-2-yl)((3R,3′R)-3′-hydroxy-1,4-dihydro-2H-spiro[isoquinoline-3,4′-piperidin]-1′-yl)methanone] | – | – | – | 7.02 | 56.2 | 0.294 |
| COCc1cc(C)cn2cc(C(=O)N3CC[C@]4(Cc5ccccc5CN4)[C@H](O)C3)nc12 [Example 113, ((3R,3′R)-3′-hydroxy-1,4-dihydro-2H-spiro[isoquinoline-3,4′-piperidin]-1′-yl)(8-(methoxymethyl)-6-methylimidazo[1,2-a]pyridin-2-yl)methanone] | – | – | 17.2 | – | 339 | 0.682 |
| Cc1cc(Br)cn2cc(C(=O)N3CC[C@]4(Cc5ccccc5CN4)[C@H](O)C3)nc12 [Example 44, (6-bromo-8-methylimidazo[1,2-a]pyridin-2-yl)((3R,3’R)-3′-hydroxy-1,4-dihydro-2H-spiro[isoquinoline-3,4′-piperidin]-1′-yl)methanone] | – | – | 1.32 | – | 42.1 | 0.687 |
| CC1(C)CC1(C#N)c1cnc2nc(C(=O)N3CC[C@]4(Cc5ccccc5CN4)[C@H](O)C3)cn2c1 (single isomer, unassigned) [Example 147] | – | – | – | 2.28 | – | 0.409 |
| O=C1Nc2cc(C(=O)N3CC[C@]4(Cc5ccccc5CN4)[C@H](O)C3)ccc2OC1C1CC1 (single isomer, unassigned) [Example 106, (2R or 2S)-2-cyclopropyl-6-((3R,3′R)-3′-hydroxy-1,4-dihydro-2H-spiro[isoquinoline-3,4′-piperidine]-1′-carbonyl)-2H-benzo[b][1,4]oxazin-3(4H)-one] | – | – | – | 36.8 | 1010 | 0.43 |
| COC(C)c1cc(C(F)(F)F)cn2cc(C(=O)N3CC[C@]4(Cc5ccccc5CN4)[C@H](O)C3)nc12 (stereo partly drawn) [Example 67, [(3R,3′R)-3′-hydroxy-1,4-dihydro-1′H,2H-spiro[isoquinoline-3,4′-piperidin]-1′-yl][8-(1-methoxyethyl)-6-(trifluoromethyl)imidazo[1,2-a]pyridin-2-yl]methanone] | – | – | 7.98 | – | 313 | 0.354 |
| O=C(c1cn2cc(Br)nc(OC3CCOC3)c2n1)N1CC[C@]2(Cc3ccccc3CN2)[C@H](O)C1 (single isomer, unassigned) [Example 98, (6-bromo-8-(((S or R)(tetrahydrofuran-3-yl)oxy)imidazo[1,2-a]pyrazin-2-yl)((3R,3′R)-3′-hydroxy-1,4-dihydro-2H-spiro[isoquinoline-3,4′-piperidin]-1′-yl)methanone] | – | – | 6.86 | – | 104 | 0.191 |
| CO[C@H](C)c1cc(N(C)Cc2nonc2C)cn2cc(C(=O)N3CC[C@]4(Cc5ccccc5CN4)[C@H](O)C3)nc12 [Example 234, [(3R,3′R)-3′-hydroxy-1,4-dihydro-1′H,2H-spiro[isoquinoline-3,4′-piperidin]-1′-yl](8-[(1R)-1-methoxyethyl]-6-{methyl[(4-methyl-1,2,5-oxadiazol-3-yl)methyl]amino}imidazo[1,2-a]pyridin-2-yl)methanone] | – | – | 23.8 | – | – | 6.82 |
| Cc1cc(C(F)F)n2nc(C(=O)N3CC[C@]4(Cc5ccccc5CN4)[C@H](O)C3)nc2n1 [Example 179, (7-(difluoromethyl)-5-methyl-[1,2,4]triazolo[1,5-a]pyrimidin-2-yl)((3R,3′R)-3′-hydroxy-1,4-dihydro-2H-spiro[isoquinoline-3,4′-piperidin]-1′-yl)methanone] | – | – | 8760 | – | 69200 | 513 |
